In paper PMC5335257, “Promoting in vivo remyelination with small molecules: a neuroreparative pharmacological treatment for Multiple Sclerosis” (Scientific Reports, 2017):
Entries after “also recorded” stand apart in the source; their conditions may differ.

Test system: corpus callosum of cuprizone-fed mice
Test: In vivo remyelination, cuprizone demyelination model
Parameters: species or system C57/BL6 male mice
Description: The protocol used was modified from previously described. Demyelination was induced by feeding 8 weeks old male C57/BL6 mice ad libitum with 0.2% cuprizone (bis-cyclo-hexanone-oxaldihydrazone; Sigma) mixed with milled chow (Altromin) for 5 weeks. A control group was maintained in the same conditions but fed with the chow without cuprizone. After cuprizone withdrawal, mice were intraperitoneally injected on 3 alternate days with PDE7-GSK3 inhibitors (VP1.15 or VP3.15; 10 mg/kg of animal) using a solution of the compound (100 mg/mL in DMSO) diluted 1:50 in a solution of 5% Tocrisolve (Tocris, UK) in distilledwater[36] or with the vehicle. 1 week after the cuprizone withdrawal, mice were transcardially perfused with 4% PFA in phosphate buffer. Another group was maintained for 3 weeks after cuprizone withdrawal and injected with 3 doses per week on alternate days of the PDE7-GSK3 inhibitors (10 mg/kg of animal per dose see above) or the vehicle and then perfused. The corpus callosum of three animals per condition was studied. For histological examination, forebrain coronal sections (20 μm) were taken of the rostral part of the corpus callosum as previously described[80][81] and stained with eriochrome cyanine using a standard protocol in order to study the myelin. Briefly, cryosections on glass slides were immersed in acetone for 5 minutes, dried and submerged in eriochrome cyanine solution (Sigma) for 1 hour and then differentiated in 5% (w/v) iron alum for 5–10 minutes, followed by a second differentiation with borax-ferricyanide solution for 5 minutes. The stained area was measured with the Image J software and related to the total analyzed area. For the immunofluorescence analysis, tissue sections were stained with anti-MBP (1:200; Serotec; Cat#MCA4095) for myelin, anti-PDGFRα (1:200; Santa Cruz; Cat#sc338) for OPCs, anti-CC1 (1:100; Calbiochem, Cat#OP80) and anti-GFAP (Glial fibrillary acidic protein; 1:200; Dako; Cat#Z0334) for astrocytes, and tomato lectin (TL; 1:67; Sigma; Cat#L0651) for microglia. Optical images were acquired using an Olympus BX61 microscope and fluorescence images were taken using a DFC480 FX digital camera (Leica) coupled to a Leica DM5000 B microscope or a confocal SP5 resonant scanner (Leica). Myelin staining (with MBP and eriochrome cyanine) and CC1 staining were quantified by taking pictures of non-overlapping fields of coronal sections of the corpus callosum, between the lateral ventricles (2 fields per section, 5–6 sections of each mice; using a x20 objective) and by measuring the fluorescence intensity or blue staining using the Image J software. The number of OPCs per field was also counted in pictures of the midline of the corpus callosum using the x40 objective (4–6 sections per mice). Astrocytes and microglia were evaluated in pictures of the same area of the corpus callosum using the x40 objective and quantified by measuring the area occupied by GFAP or TL staining respectively using the Image J software (4–6 sections per mice). Data were expressed as the mean ± SEM.

c1ccc(-c2n/c(=N/CCN3CCOCC3)sn2-c2ccccc2)cc1 [VP3.15]
myelin staining (eriochrome cyanine) in corpus callosum vs vehicle (10 mg/kg i.p. on 3 alternate days, 1 week after cuprizone withdrawal): significantly higher myelin staining; also recorded: almost complete remyelination | myelin quantification by MBP immunodetection (10 mg/kg i.p., after cuprizone withdrawal): confirmed these results, with similar effects | microglial activation (TL staining) vs vehicle (1 week after cuprizone withdrawal): Neither VP1.15 nor VP3.15 induced changes | number of OPCs (PDGFRα+ cells) vs vehicle (one week after cuprizone withdrawal): significantly lower number of OPCs
